We go through 19 compounds from patent US20100311729A1, “Substituted imidazopyridazines and pyrrolopyrimidines as lipid kinase inhibitors” (priority 2007, published 2010).

Common to all, as to assay type: biochemical
One assay addresses T1, PI3K alfa (Homo sapiens, UniProt P42336).
T1 construct: for the p110-a subunit (with a deletion of the first 20 amino acids); His tag (C); made in house; host or cells: baculovirus; Tn5 (Trichoplusia ni) or TiniPro insect cells
Nature of the assay: PI3 kinase assay (Kinase-Glo luminescence), PI3K alfa. To be noted: Enzymatic Data; read-out: PI3K alfa IC50 [umol]. Put shortly: (§1)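 Recombinant PI3K constructs (alfa 10 nM, delta 10 nM, gamma 150 nM) with 1 μM ATP and 10 μg/mL phosphatidylinositol in Tris pH 7.5, MgCl2, NaCl, CHAPS, DTT; 60 min (alfa, delta) or 120 min (gamma) at room temperature. ATP depletion read by Kinase-Glo luminescence; IC50 from 4-parameter logistic fit over 8 concentrations.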

In the next assay the target is T2, PI3K beta (Homo sapiens, UniProt P42338).
T2 construct: for the full-length p110-b subunit are generated and fused by overlapping PCR; His tag (C); made in house; host or cells: baculovirus; Tn5 (Trichoplusia ni) or TiniPro insect cells
T2 sequence (P42338 with tags, fused parts or gaps limits assumed): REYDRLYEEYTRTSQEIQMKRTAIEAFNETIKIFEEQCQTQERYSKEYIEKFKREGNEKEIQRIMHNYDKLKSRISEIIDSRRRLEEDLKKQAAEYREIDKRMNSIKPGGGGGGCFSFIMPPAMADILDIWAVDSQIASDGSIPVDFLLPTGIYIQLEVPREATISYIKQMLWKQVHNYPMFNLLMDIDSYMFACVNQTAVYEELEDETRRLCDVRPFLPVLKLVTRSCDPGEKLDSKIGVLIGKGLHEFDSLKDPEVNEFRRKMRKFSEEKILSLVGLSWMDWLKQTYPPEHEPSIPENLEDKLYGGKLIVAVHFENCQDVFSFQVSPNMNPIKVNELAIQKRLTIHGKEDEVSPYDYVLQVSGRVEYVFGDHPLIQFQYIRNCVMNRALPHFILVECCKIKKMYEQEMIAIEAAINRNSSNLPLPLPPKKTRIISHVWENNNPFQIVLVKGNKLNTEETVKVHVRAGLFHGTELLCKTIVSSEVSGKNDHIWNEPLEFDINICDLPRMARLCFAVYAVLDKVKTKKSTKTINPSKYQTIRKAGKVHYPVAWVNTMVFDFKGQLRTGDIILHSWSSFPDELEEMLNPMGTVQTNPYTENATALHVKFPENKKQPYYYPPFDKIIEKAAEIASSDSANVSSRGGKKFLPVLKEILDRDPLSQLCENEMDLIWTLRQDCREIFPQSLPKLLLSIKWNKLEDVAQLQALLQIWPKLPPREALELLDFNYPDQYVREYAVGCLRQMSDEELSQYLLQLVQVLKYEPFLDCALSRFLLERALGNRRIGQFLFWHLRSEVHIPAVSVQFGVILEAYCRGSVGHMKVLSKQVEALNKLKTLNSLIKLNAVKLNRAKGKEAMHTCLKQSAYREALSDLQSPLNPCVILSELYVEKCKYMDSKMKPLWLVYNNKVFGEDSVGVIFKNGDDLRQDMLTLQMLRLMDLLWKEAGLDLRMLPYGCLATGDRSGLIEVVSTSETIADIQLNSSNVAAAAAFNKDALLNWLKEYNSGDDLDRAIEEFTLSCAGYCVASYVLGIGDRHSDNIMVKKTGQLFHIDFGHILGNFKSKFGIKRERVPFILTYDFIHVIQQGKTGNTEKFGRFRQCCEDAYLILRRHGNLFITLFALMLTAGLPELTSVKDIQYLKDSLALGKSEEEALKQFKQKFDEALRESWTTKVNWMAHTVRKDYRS
Nature of the assay: PI3 kinase assay (Kinase-Glo luminescence), PI3K beta. To be noted: Enzymatic Data; read-out: PI3K beta IC50 [umol]. Put shortly: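 PI3Kβ (25 nM, BV-949) with 10 μg/mL phosphatidylinositol in Tris pH 7.5/MgCl2/NaCl/CHAPS/DTT buffer; reaction started with 1 μM ATP, 60 min at room temperature. ATP depletion read by Kinase-Glo luminescence; 8-point dilutions, IC50 by four-parameter logistic fit.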

A further assay addresses T3, PI3K delta (Homo sapiens, UniProt O00329).
T3 construct: for the full-length p110-d subunit are generated and fused by overlapping PCR; His tag (C); made in house; host or cells: baculovirus; Tn5 (Trichoplusia ni) or TiniPro insect cells
Nature of the assay: PI3 kinase assay (Kinase-Glo luminescence), PI3K delta. To be noted: Enzymatic Data; read-out: PI3K delta IC50 [umol]. Put shortly: as §1

Another assay deals with T4, PI3K gamma (Homo sapiens, UniProt P48736).
T4 construct: PI3Kγ BV-950 p110g(D144aa)-C-Term His Tag; His tag (C); made in house; host or cells: construct from the Roger Williams lab (MRC LMB) in pVL1393; baculovirus; Tn5 (Trichoplusia ni) or TiniPro insect cells
T4 sequence (P48736 144-1102 limits assumed): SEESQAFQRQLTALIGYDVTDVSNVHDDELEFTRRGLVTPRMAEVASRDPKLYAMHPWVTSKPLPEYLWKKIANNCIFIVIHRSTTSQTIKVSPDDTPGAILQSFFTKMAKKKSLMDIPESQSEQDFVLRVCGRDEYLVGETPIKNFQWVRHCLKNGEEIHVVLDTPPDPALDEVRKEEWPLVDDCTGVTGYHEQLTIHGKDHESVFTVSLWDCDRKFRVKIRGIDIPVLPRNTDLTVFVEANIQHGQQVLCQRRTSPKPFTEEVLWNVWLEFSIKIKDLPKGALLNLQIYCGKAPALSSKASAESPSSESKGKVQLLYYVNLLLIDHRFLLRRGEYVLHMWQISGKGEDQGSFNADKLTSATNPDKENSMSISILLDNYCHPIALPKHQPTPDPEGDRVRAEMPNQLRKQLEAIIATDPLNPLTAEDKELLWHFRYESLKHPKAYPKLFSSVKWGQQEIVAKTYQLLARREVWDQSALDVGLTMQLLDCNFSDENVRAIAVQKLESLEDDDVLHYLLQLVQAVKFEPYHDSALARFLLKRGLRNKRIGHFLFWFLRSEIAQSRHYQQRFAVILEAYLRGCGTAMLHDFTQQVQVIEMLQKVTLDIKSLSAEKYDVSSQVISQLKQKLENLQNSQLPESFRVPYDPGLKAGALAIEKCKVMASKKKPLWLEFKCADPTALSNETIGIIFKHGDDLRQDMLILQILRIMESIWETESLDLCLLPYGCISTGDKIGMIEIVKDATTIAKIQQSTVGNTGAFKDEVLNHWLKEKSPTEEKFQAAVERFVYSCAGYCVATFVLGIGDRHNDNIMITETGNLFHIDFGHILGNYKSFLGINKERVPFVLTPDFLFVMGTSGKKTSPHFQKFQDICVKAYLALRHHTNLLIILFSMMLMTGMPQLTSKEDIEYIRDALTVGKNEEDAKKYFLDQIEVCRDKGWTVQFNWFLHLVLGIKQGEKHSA
Nature of the assay: PI3 kinase assay (Kinase-Glo luminescence), PI3K gamma. The note with it: Enzymatic Data; read-out: PI3K gamma IC50 [umol]. Summed up:
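Kinase-Glo luminescence assay with 1 μM ATP and 10 μg/mL phosphatidylinositol (final), reaction started by ATP addition. IC50 from 4-parameter logistic fit of percent inhibition at 8 compound concentrations (usually 10 down to 0.003 […]).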

Structures are written as SMILES.

T3 sequence (O00329 with tags, fused parts or gaps limits assumed): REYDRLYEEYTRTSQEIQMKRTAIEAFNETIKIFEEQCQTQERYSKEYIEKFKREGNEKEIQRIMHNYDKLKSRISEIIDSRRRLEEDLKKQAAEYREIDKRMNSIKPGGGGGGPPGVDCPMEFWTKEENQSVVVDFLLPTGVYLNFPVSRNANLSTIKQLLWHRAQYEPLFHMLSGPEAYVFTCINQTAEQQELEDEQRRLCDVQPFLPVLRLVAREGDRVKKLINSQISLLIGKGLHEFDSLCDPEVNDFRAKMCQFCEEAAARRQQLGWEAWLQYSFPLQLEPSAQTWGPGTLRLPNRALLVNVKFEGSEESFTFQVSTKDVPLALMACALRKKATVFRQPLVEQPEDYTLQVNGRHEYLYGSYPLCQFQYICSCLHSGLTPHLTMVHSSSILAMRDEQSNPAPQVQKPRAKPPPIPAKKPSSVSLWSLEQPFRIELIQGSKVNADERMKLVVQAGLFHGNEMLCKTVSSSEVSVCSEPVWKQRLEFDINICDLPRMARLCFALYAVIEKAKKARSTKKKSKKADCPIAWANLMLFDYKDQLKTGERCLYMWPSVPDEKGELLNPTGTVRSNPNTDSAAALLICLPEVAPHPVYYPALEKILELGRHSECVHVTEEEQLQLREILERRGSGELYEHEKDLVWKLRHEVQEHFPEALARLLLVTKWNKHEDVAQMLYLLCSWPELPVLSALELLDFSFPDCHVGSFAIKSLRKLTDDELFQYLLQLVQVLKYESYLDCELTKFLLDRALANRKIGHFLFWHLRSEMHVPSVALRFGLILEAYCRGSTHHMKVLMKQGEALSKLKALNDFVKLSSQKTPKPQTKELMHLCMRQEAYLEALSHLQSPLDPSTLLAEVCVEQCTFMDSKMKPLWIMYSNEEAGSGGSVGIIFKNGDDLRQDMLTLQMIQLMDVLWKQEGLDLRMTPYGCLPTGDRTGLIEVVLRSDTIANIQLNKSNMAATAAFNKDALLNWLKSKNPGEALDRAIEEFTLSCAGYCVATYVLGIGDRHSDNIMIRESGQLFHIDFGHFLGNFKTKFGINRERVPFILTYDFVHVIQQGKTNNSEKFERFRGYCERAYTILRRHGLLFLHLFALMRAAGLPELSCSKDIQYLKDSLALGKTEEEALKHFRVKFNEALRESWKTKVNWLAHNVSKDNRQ
T1 sequence (P42336 with tags, fused parts or gaps limits assumed): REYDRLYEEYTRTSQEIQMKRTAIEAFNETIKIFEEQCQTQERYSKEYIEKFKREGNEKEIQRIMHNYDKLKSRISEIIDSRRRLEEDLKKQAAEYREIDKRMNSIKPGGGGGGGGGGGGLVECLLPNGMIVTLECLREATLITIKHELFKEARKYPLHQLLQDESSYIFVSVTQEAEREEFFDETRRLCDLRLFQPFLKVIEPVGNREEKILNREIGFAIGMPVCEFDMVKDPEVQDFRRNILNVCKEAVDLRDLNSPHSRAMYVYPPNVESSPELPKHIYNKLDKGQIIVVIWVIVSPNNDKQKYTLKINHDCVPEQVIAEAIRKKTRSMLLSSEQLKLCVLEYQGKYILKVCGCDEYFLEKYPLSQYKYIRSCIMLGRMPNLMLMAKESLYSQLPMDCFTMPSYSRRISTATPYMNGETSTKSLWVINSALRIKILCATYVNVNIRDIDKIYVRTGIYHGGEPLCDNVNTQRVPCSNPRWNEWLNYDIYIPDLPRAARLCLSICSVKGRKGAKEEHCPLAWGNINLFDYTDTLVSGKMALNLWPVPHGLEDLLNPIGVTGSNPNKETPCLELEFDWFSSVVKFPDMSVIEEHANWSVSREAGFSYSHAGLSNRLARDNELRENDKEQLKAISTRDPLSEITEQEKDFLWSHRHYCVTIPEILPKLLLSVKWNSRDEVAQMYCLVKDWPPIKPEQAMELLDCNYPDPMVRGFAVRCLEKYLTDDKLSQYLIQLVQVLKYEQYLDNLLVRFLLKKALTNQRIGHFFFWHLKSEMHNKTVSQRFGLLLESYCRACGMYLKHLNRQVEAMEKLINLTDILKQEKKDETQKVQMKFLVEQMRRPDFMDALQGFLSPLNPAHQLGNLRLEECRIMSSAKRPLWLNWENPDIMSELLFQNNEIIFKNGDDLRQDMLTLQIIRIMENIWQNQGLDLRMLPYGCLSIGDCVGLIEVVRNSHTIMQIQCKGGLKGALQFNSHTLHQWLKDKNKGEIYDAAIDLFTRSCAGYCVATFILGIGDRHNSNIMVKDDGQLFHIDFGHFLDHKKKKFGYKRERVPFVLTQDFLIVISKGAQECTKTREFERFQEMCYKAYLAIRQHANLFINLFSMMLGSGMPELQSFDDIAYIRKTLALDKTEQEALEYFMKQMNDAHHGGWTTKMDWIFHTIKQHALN

Turning to `COc1cc(-c2cnc3ccc(-c4cnc(N)c(C(F)(F)F)c4)nn23)ccc1C(=O)NCCCN1CCOCC1` [Example 125, 4-[6-(6-Amino-5-trifluoro-methyl-pyridin-3-yl)-imidazo [1,2-b]pyridazin-3-yl]-2-methoxy-N-(3-morpholin-4-yl-propyl)-benzamide], the IC50 on PI3K alfa was determined as 26 nM; on PI3K beta, 182 nM; on PI3K delta it was 55 nM; on PI3K gamma it was 490 nM.

For `Nc1ncc(-c2ccc3ncc(-c4cnc5c(ccn5CCN5CCOCC5)c4)n3n2)cc1C(F)(F)F` [Example 126, 5-{3-[1-(2-Morpholin-4-yl-ethyl)-1H-pyrrolo [2,3-b]pyridin-5-yl]-imidazo [1,2-b]pyridazin-6-yl}-3-trifluoro-methyl-pyridin-2-ylamine], the IC50 amounted to 66 nM at PI3K alfa, 139 nM at PI3K beta, 22 nM on PI3K delta and 1030 nM on PI3K gamma.

In the case of `Nc1ncc(-c2ccc3ncc(-c4ccc(C(=O)N5CCN(Cc6cccnc6)CC5)cc4)n3n2)cc1C(F)(F)F` [Example 127, {4-[6-(6-Amino-5-trifluoro-methyl-pyridin-3-yl)-imidazo [1,2-b]pyridazin-3-yl]-phenyl}-(4-pyridin-3-ylmethyl-piperazin-1-yl)-methanone], the IC50 at PI3K alfa amounted to 19 nM; at PI3K beta, 416 nM; at PI3K delta, 59 nM; on PI3K gamma it was 1050 nM.

Turning to `Nc1ncc(-c2ccc3ncc(-c4ccc(C(=O)N5CCN(CCN6CCOCC6)CC5)cc4)n3n2)cc1C(F)(F)F` [Example 128, {4-[6-(6-Amino-5-trifluoro-methyl-pyridin-3-yl)-imidazo [1,2-b]pyridazin-3-yl]-phenyl}-[4-(2-morpholin-4-yl-ethyl)-piperazin-1-yl]-methanone], the IC50 on PI3K alfa amounted to 12 nM; on PI3K beta it was 518 nM; at PI3K delta, 38 nM; on PI3K gamma, 938 nM.

Consider `Nc1ccc(-c2cnc3ccc(-c4ccc(OCCCNC(=O)C5CC5)cc4)nn23)cn1` [Example 129, Cyclo-propane-carboxylic acid (3-{4-[3-(6-amino-pyridin-3-yl)-imidazo [1,2-b]pyridazin-6-yl]-phenoxy}-propyl)-amide], for which the IC50 on PI3K alfa is 223 nM; at PI3K beta, 4140 nM; on PI3K delta, 676 nM; on PI3K gamma it was 2020 nM.

`O=C(NCCCOc1ccc(-c2ccc3ncc(-c4cncc(C(F)(F)F)c4)n3n2)cc1)C1CC1` [Example 130, Cyclo-propane-carboxylic acid (3-{4-[3-(5-trifluoro-methyl-pyridin-3-yl)-imidazo [1,2-b]pyridazin-6-yl]-phenoxy}-propyl)-amide]: the IC50 is 347 nM on PI3K alfa, greater than 9100 nM at PI3K beta, 576 nM on PI3K delta and 1300 nM on PI3K gamma.

Regarding `Nc1ncc(-c2ccc3ncc(-c4ccc5c(cnn5CCN5CCOCC5)c4)n3n2)cc1C(F)(F)F` [Example 131, 5-{3-[1-(2-Morpholin-4-yl-ethyl)-1H-indazol-5-yl]-imidazo [1,2-b]pyridazin-6-yl}-3-trifluoro-methyl-pyridin-2-ylamine], the IC50 was found to be 26 nM at PI3K alfa, 112 nM on PI3K beta, 15 nM on PI3K delta and 703 nM at PI3K gamma.

In the case of `CN(C)CCN1CCN(C(=O)c2ccc(-c3cnc4ccc(-c5cnc(N)c(C(F)(F)F)c5)nn34)cc2)CC1` [Example 132, {4-[6-(6-Amino-5-trifluoro-methyl-pyridin-3-yl)-imidazo [1,2-b]pyridazin-3-yl]-phenyl}-[4-(2-dimethyl-amino-ethyl)-piperazin-1-yl]-methanone], the IC50 is 26 nM on PI3K alfa, 1260 nM on PI3K beta, 52 nM at PI3K delta and 2020 nM on PI3K gamma.

Regarding `COc1cc(-c2cnc3ccc(-c4cnc(N)c(C(F)(F)F)c4)nn23)ccc1C(=O)N1CCN(CCc2ccccn2)CC1` [Example 133, {4-[6-(6-Amino-5-trifluoro-methyl-pyridin-3-yl)-imidazo [1,2-b]pyridazin-3-yl]-2-methoxy-phenyl)-[4-(2-pyridin-2-yl-ethyl)-piperazin-1-yl]-methanone], the IC50 at PI3K alfa came to 38 nM; on PI3K beta, 302 nM; on PI3K delta, 33 nM; at PI3K gamma it was 1280 nM.

With `Nc1ncc(-c2ccc3ncc(-c4ccc(S(=O)(=O)NCCCN5CCOCC5)cc4)n3n2)cc1C(F)(F)F` [Example 134, 4-[6-(6-Amino-5-trifluoro-methyl-pyridin-3-yl)-imidazo [1,2-b]pyridazin-3-yl]-N-(3-morpholin-4-yl-propyl)-benzene-sulfonamide], the IC50 was 71 nM on PI3K alfa, 443 nM at PI3K beta, 79 nM on PI3K delta and greater than 9100 nM at PI3K gamma.

Regarding `Nc1ncc(-c2ccc3ncc(-c4ccc(C(=O)N5CCN(CCc6ccccn6)CC5)cc4)n3n2)cc1C(F)(F)F` [Example 135], the IC50 on PI3K alfa turned out to be 46 nM; at PI3K beta, 587 nM; at PI3K delta it was 59 nM; at PI3K gamma, 2010 nM.

In the case of `Nc1ncc(-c2ccc3ncc(-c4ccc(C(=O)N5CCN(Cc6ccncc6)CC5)cc4)n3n2)cc1C(F)(F)F` [Example 136, {4-[6-(6-Amino-5-trifluoro-methyl-pyridin-3-yl)-imidazo [1,2-b]pyridazin-3-yl]-phenyl}-(4-pyridin-4-ylmethyl-piperazin-1-yl)-methanone], the IC50 stood at 36 nM on PI3K alfa, 1200 nM on PI3K beta, 52 nM on PI3K delta and 1530 nM at PI3K gamma.

On to `O=C(NCCCOc1ccc(-c2ccc3ncc(-c4cnc5[nH]ccc5c4)n3n2)cc1)C1CC1` [Example 137, Cyclo-propane-carboxylic acid (3-{4-[3-(1H-pyrrolo[2,3-b]pyridin-5-yl)-imidazo [1,2-b]pyridazin-6-yl]-phenoxy}-propyl)-amide], for which the IC50 at PI3K alfa is 138 nM; on PI3K beta, greater than 9100 nM; on PI3K delta, 280 nM; on PI3K gamma, greater than 9100 nM.

For `Nc1ncc(-c2ccc3ncc(-c4ccc5c(cnn5CCCN5CCOCC5)c4)n3n2)cc1C(F)(F)F` [Example 140, 5-{3-[1-(3-Morpholin-4-yl-propyl)-1H-indazol-5-yl]-imidazo [1,2-b]pyridazin-6-yl}-3-trifluoro-methyl-pyridin-2-ylamine], the IC50 stood at 37 nM at PI3K alfa, 135 nM on PI3K beta, 27 nM on PI3K delta and 712 nM at PI3K gamma.

Consider `NCCCOc1ccc(-c2cnc3ccc(-c4cnc(N)c(C(F)(F)F)c4)nn23)cc1` [Example 141, 5-{3-[4-(3-Amino-propoxy)-phenyl]-imidazo [1,2-b]pyridazin-6-yl}-3-trifluoro-methyl-pyridin-2-ylamine], for which the IC50 at PI3K alfa was determined as 151 nM; on PI3K beta it was 134 nM; on PI3K delta, 201 nM; on PI3K gamma it was 7250 nM.

Regarding `Nc1ncc(-c2ccc3ncc(-c4ccc(OCCCNC(=O)C5CC5)cc4)n3n2)cc1C(F)(F)F` [Example 142, Cyclo-propane-carboxylic acid (3-{4-[6-(6-amino-5-trifluoro-methyl-pyridin-3-yl)-imidazo [1,2-b]pyridazin-3-yl]-phenoxy}-propyl)-amide], the IC50 at PI3K alfa is 45 nM; at PI3K beta, 3160 nM; on PI3K delta, 319 nM; at PI3K gamma, greater than 9100 nM.

Take `Nc1ncc(-c2ccc3ncc(-c4cnc5c(c4)ncn5CCN4CCOCC4)n3n2)cc1C(F)(F)F` [Example 143, 5-{3-[3-(2-Morpholin-4-yl-ethyl)-3H-imidazo [4,5-b]pyridin-6-yl]-imidazo [1,2-b]pyridazin-6-yl}-3-trifluoro-methyl-pyridin-2-ylamine]: the IC50 at PI3K alfa was determined as 44 nM; at PI3K beta, 72 nM; on PI3K delta, 28 nM; on PI3K gamma, 1180 nM.

In the case of `Nc1ncc(-c2ccc3ncc(-c4ccc(C(=O)N5CCN(CC(=O)N6CCOCC6)CC5)cc4)n3n2)cc1C(F)(F)F` [Example 144, 2-(4-{4-[6-(6-Amino-5-trifluoro-methyl-pyridin-3-yl)-imidazo [1,2-b]pyridazin-3-yl]-benzoyl}-piperazin-1-yl)-1-morpholin-4-yl-ethanone], the IC50 at PI3K alfa was found to be 175 nM; at PI3K beta it was 533 nM; at PI3K delta, 266 nM; at PI3K gamma, 5900 nM.

On to `Nc1ncc(-c2ccc3ncc(-c4ccc(C(=O)N5CCN(CCO)CC5)cc4)n3n2)cc1C(F)(F)F` [Example 145], for which the IC50 stood at 97 nM on PI3K alfa, 508 nM on PI3K beta, 151 nM on PI3K delta and 6920 nM at PI3K gamma.
